Assay results taken from US9586993B2, “CD44v6-derived peptides for treating pancreatic cancer” (AMCURE GMBH, priority 2012, dated 2017).
Like-named read-outs stand apart in the source and are kept apart here. No end group written: not given here.

Assays:
Met = settings: Matzke et al., Cancer Res. (2005), cited from earlier work
[1] = tested on: HGF induced activation of the receptor tyrosine kinase Met and ERK; assay: HGF-induced activation of Met and ERK in BSp73ASs6 cells (western blot); type: cell-based, rat; settings: HGF 10 ng/ml, peptide added 10 min before induction
Experimental: (§1) Serum-starved cells (24 hours) were induced with the growth factor HGF (10 ng/mL) at 37° C. for 5 minutes. Where indicated, the cells were treated with peptides (100 ng/ml) prior to induction at 37° C. for 10 minutes (100 ng/mL CD44v6 peptide or control peptide). Following the induction with HGF, cells were washed with ice-cold phosphate-buffered saline (PBS). To detect activated Met and Erk, cells were lysed in sodium dodecyl sulfate (SDS)-sample buffer containing 100 mM dithiothreitol (DTT), boiled and subjected to western blot analysis using antibodies against phospho-Met and ERK. The loading controls were performed on the same blot after stripping (62.5 mM Tris, pH 6.8, 2% SDS, 0.8% DTT) by probing with the Met respectively ERK antibody. Blots were stained using the enhanced chemiluminescence system (Thermo Fisher Scientific, Schwerte, Germany). Bands in western blot analysis were quantified with the program Image J (National Institutes of Health).
The PEG-control peptide and PEG-rat CD44v6 peptide were compared for their ability to block HGF induced activation of the receptor tyrosine kinase Met and ERK. […]
Activation of ERK and Met was determined by standard SDS and Western Blotting techniques using a phospho-Met and phospho-Erk specific antibody (phospho-Met clone D16 cell signaling, phospho-Erk p42/44 cell signaling)

BSp73ASs6 tumors = settings: rat, iv
Experimental: In vivo imaging of the subcutaneously grown BSp73ASs6 tumors in BD10 or BDX rats was performed using the near infrared fluorescence (NIRF)-imaging system Optix MX2 (ART, Montreal, Canada) as described earlier (Napp et al., Int J Cancer (2010), 127:1958-1974). To avoid autofluorescence of fur, rats were shaved around the tumor prior to imaging. Subsequently, animals were anesthetized using 2% isoflurane and gently fixed on the devices' heated plate for the entire time of data acquisition. To reduce fluorescence background, rats were fed with chlorophyll-reduced food (Provimi Kliba AG, Kaiseraugst, Switzerland) for one week prior NIRF imaging. All in vivo analyses were preceded by native scans of animals without any injection of the fluorescent probe. For in vivo analysis, rats were injected with 200 DY681-labeled rat v6 11mer peptide or the human v6 11mer peptide via the tail vein. […]
DY681 fluorescence was measured using excitation at 670 nm in combination with a 700 nm long-pass emission filter. […] Data sets were analyzed with OptiView (ART).
For in vivo experiments, BSp73ASs6 cells were injected subcutaneously into syngeneic rats. […] The accumulation of the fluorescence was measured in the tumor region by Optix MX2 at the indicated time points. […] Then, in vivo binding kinetics of the Dy681-labeled v6 peptides to the subcutaneous tumors were determined.

BSp73ASs6 cells = assay: Staining of fixed BSp73ASs6 cells with DY681-labeled peptides; type: binding, rat; settings: DY681-labeled peptide, one hour
Experimental: (§2) ASs6 or L3.6p1 cells were seeded at 5,000 cells/well of a Lab-Tek® Chamber Slide™ (Nunc, Napierville, Ill., USA). On the following day the cells were washed with cold PBS and fixed with 4% Formalin for 30 min at RT. Unspecific binding was blocked with 1% BSA in PBS for 1 hour at RT. The cells were incubated for 1 hour with the DY681-labeled peptides. After three washing steps with PBS the cover slips were mounted with Fluorescence Mounting Medium (Dako, Glostrup, Denmark) and the immunofluorescence was measured by a laser scanning confocal microscope Leica TCS2 SP2 (Exton, Pa., USA) and processed using Leica confocal software. A 20× objective was used for imaging.

L3.6p1 tumors = assay: In vivo and ex vivo imaging with Pearl Imager of mice bearing L3.6p1 tumors; parameters: species or system mouse
Experimental: In vivo imaging of the mice with the L3.6p1 tumors was performed using the Pearl™ Imager (LI-COR Biosciences, Bad Homburg, Germany) The system uses two lasers (685 and 785 nm) for excitation and a charge-coupled device detector for signal detection. The laser excitation enables a deep tissue penetration. With the near-infrared detection a high sensitivity due to the reduced tissue auto-fluorescence is achieved. In order to standardize the images we made use of the Pearl Cam Software. The animals were fed with chlorophyll-reduced food to reduce the fluorescence background one week before imaging (Regime 210, safe-diets, Augy, France). Prior to imaging the mice were anesthetized with 2.0% isoflurane. Animals were placed on the heated plate of the imager and continuous delivery of isoflurane was achieved through a nose cone in the imaging drawer. Images were captured at white light, 700 and 800 nm Animals were imaged prior to i.v. peptide injection and 24 h after injection with either DY681-labeled human v6 peptide or DY681-labeled rat v6 peptide as control Immediately after each imaging session animals were killed, tumor, liver and spleen isolated and scanned ex vivo at white light, 700 and 800 nm.

L3.6p1 cells = assay: Staining of L3.6p1 cells with DY681-labeled peptides; type: binding, human; settings: DY681-labeled peptide
Experimental: as §2

[2] = tested on: Met activation and downstream signaling to ERK; assay: HGF-induced activation of Met and ERK in L3.6p1 cells (western blot); type: cell-based, human; settings: HGF 10 ng/ml
Experimental: as §1
To expand the studies to human pancreatic tumors, the highly metastatic human pancreatic carcinoma cells L3.6p1 (Bruns, et al. Neoplasia (1999), 1(1):50-62) were investigated. These cells originate from the […] cells that have been passaged several times in the liver and the pancreas, a step that rendered them more and more metastatic. It was confirmed that Met is dependent on CD44v6 for its activation and signaling in these cells (FIG. 4A). The L3.6p1 cells were treated with HGF in the presence or absence of a human v6 peptide of SEQ ID NO: 2 or SEQ ID NO:6 and Met activation and downstream signaling to ERK was measured.

[3] = tested on: L3.6p1 pancreatic carcinoma cells; assay: Human orthotopic model, L3.6p1 cells in the pancreas of nude mice; type: in vivo, mouse
Experimental: In the case of the human orthotopic model, L3.6p1 pancreatic carcinoma cells (passage 24-26) were suspended in Hank's balanced salt solution (Invitrogen, Karlsruhe, Germany) after trypsinization. The cells were injected orthotopically in the pancreas of male nude mice as described (Bruns C J et al. (1999) Neoplasia 1(1):50-62). Two groups of 15 mice each were injected i.p. 7 days later with either the human v6 peptide respectively rat control peptide (20 μg). For all experiments described and depicted herein either the rat 14mer control peptide or the human 14mer peptide were used. All experiments were then repeated with the rat 5mer control peptide or the human 5mer peptide (N-R-W-H-E, SEQ ID NO: 2). […] The injection was repeated three times per week for 21 days. Two days after the last treatment the animals were killed.
7 μm thick paraffin sections were deparaffinized and rehydrated. For P-Met staining antigen unmasking was achieved by boiling the slides in 1 mM EDTA pH 8.0 followed by incubation for 15 minutes at a sub-boiling temperature, for CD31 staining the sections were treated with Proteinase K (8 μg/ml) for 10 min at 37° C. For immunofluorescence staining of P-Met, unspecific binding was blocked with 5% goat serum (DAKO, Glostrup, Denmark) (diluted in 1×PBS/0.3% Triton X-100) for 60 minutes. In the case of immunohistochemistry, endogenous peroxidases were at first blocked with 3% H2O2 in PBS followed by incubation with biotin blocking system (Dako, Glostrup, Denmark) and then unspecific binding was inhibited by incubation with 5% FCS in PBS. The sections were incubated with the P-Met antibody (D26, dilution 1:50 in 1×PBS/1% BSA/0.3% Triton X-100), Met antibody (C-28, dilution 1:50), GFP antibody (sc-101525, dilution 1:50) or antibody (5 μg/ml) over night or VFF18 (5 μg/ml) o/n at 4° C. After washing in PBS the sections were incubated with Alexa Fluor R 546 goat anti-rabbit (in case of immunofluorescence P-Met and Met staining, dilution 1:500) or a biotinylated secondary antibody (for immunohistochemical stainings rabbit anti-rat antibody for VFF18 and CD31, goat anti-rabbit for P-Met, cleaved Caspase-3 and cleaved Caspase-8 and rabbit anti-mouse for GFP, dilution 1:500) for 45 minutes. For DAB (3,3′-diaminobenzidine) staining the sections were treated with a streptavidin-peroxidase conjugate (Dako, Glostrup, Denmark) and developed with DAB substrate system (3,3′-diaminobenzidine; Biozol, Eching, Germany) For immunofluorescence DAPI was used for nuclear staining.
The three CD44v6 specific compounds (v6 5mer, PEG840-v6 5mer and PEG2000-v6 5mer of human origin) and a control peptide were applied in three concentrations (2 μg, 20 μg, 200 μg per injection) three times per week i.p. for 4 weeks. One week before start of the treatment the L3.6p1 tumor cells were orthotopically implanted into nude mice.
Animals were implanted orthotopically with L3.6p1 cells. Tumor growth was allowed for one week before the treatment with the linear v6 14mer, the cyclic v6 8mer as well as the control peptide (rat v6 14mer) was started. All peptides were injected three times per week at a concentration of 0.2, 2 and 10 μg per injection for 3 weeks. At the end of the treatment animals were sacrificed.
A comparison of different CD44v6 peptide derivatives was performed in animals bearing a orthotopic L3.6p1 tumor. 10 groups of 5 animals each received a dose of 20 μg peptide per injection three times per week for 3 weeks with the compounds listed in Table 4. Three weeks after starting the treatment the animals were sacrificed and analyzed for macroscopic metastases and tumor volume.

[4] = tested on: L3.6p1 pancreatic carcinoma cells; assay: as above; type: in vivo, mouse; settings: dose reduction experiment, 0.2 to 20 μg per injection three times per week for 3 weeks

## A-R-W-H-A (ARWHA) [A-R-W-H-A (SEQ ID NO: 3)]
Met
  inhibition of CD44v6 mediated activation of Met: capable of abrogating Met activation
Met; listed as SEQ ID NO: 3
  inhibition of CD44v6 mediated activation of Met: still active in inhibiting CD44v6 mediated activation of Met

## WFENEWQGKNP (also: DY681 dye, position not given here) [DY681 rat v6 peptide, rat 11mer labeled with the fluorescent dye DY681]
[1]
  inhibition of HGF-induced activation of Met and Erk: inhibited Met activation
BSp73ASs6 tumors; in vivo
  time of maximum fluorescence intensity over the tumor area: 1 days
BSp73ASs6 tumors
  duration of high fluorescence intensity over the tumor area in vivo: at least 2 days
BSp73ASs6 cells
  binding to BSp73ASs6 cells in tissue culture: bound to BSp73ASs6 cells in tissue culture

## WFGNRWHEGYR (also: DY681 dye, position not given here) [DY681 human v6 peptide, human 11mer labeled with the fluorescent dye DY681]
L3.6p1 tumors; one i.v. injection of 20 μg, 24 h after injection
  fluorescence in the tumor in vivo: accumulated specifically in the tumor
L3.6p1 tumors; organs excised 24 h after injection
  ex vivo fluorescence in primary tumors, livers and spleens: binding not only to primary tumors but also to areas of the liver
L3.6p1 cells
  binding to L3.6p1 cells in cell culture: bound to these cells in cell culture
[2]
  inhibition of HGF-induced activation (phosphorylation) of Met and ERK: inhibited Met activation in L3.6p1 cells

## WFQNGWQGKNP (also: DY681 dye, position not given here) [DY681 mouse v6 peptide, mouse 11mer labeled with the fluorescent dye DY681, control, reference compound]
[1]
  inhibition of HGF-induced activation of Met and Erk: but not the mouse peptide inhibited Met activation

## cy[KGNRWHEG] (also: cyclic, ring type not given here) [cycl. 8 mer]
[3]; 2 μg per injection i.p. three times per week
  metastasis formation (liver): blocked metastatic spreading at 2 and 20 μg per injection very efficiently
[3]; 20 μg per injection i.p. three times per week for three weeks, start one week after implantation
  outgrowth / size of the primary tumor: strongest reduction of tumor size
[3]; 20 μg per injection i.p. three times per week, start one week after implantation, listed as cyclic 8mer
  metastasis formation (liver): complete inhibition of metastasis
[3]; 20 μg per injection i.p. three times per week, start one week after implantation, listed as cyclic v6 8mer
  metastasis formation (liver): blocked metastatic spreading at 2 and 20 μg per injection very efficiently
[4]; listed as cyclic 8mer
  size / growth of the primary tumor: reduces growth of the primary tumor
[4]; listed as cyclic v6 8mer
  size / growth of the primary tumor: drastic effect on growth of the primary tumor
